Measured values: US11753445B2, “Therapeutic peptides” (COHBAR, INC., priority 2016, dated 2023)

Columns and labels:
[1] = Stability in mouse plasma, peptides 100 uM (Example 14); format: in vitro ADME; conditions: mouse plasma 37° C., peptide 100 uM; for remaining at 0.25 h, 100 uM / remaining at 0.5 h, 100 uM / remaining at 1 h, 100 uM / remaining at 2 h, 100 uM / remaining at 3 h, 100 uM: pooled mouse plasma; for remaining at 0.25 h, 100 uM: 15 min, read-out: % Remaining at Each Time Point: 15 min; for remaining at 0.5 h, 100 uM: 30 min, read-out: % Remaining at Each Time Point: 30 min; for remaining at 1 h, 100 uM: 60 min, read-out: % Remaining at Each Time Point: 60 min; for remaining at 2 h, 100 uM: 120 min, read-out: % Remaining at Each Time Point: 120 min; for remaining at 3 h, 100 uM: 180 min, read-out: % Remaining at Each Time Point: 180 min
Procedure: (§1) Peptides (100 uM) were incubated in pooled mouse plasma at 37° C. and samples were removed and immediately analyzed for the concentration of intact peptide by LC/MS/MS over the course of 3 hours. The percent of peptide remaining in plasma at each time point was calculated relative to the initial peak area (Table 12).

3T3-L1 Adipocytes = experiment: Free fatty acid levels in cultured mouse 3T3-L1 adipocytes, isoproterenol stimulated (Example 2); format: cell-based; conditions: test peptides 25 μM; isoproterenol 1 nM
Outline: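 3T3-L1 cells differentiated 12–17 days into adipocytes, then exposed to test peptides at 25 μM final for 18–20 h, then 1 h, then 3 h with isoproterenol (1 nM) at 37 °C. Free fatty acids in the medium measured colorimetrically at 540 nm, corrected for untreated background and expressed relative to isoproterenol-only cells.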

[2] = Stability in mouse plasma, peptides 10 uM (Example 15); format: in vitro ADME; conditions: mouse plasma 37° C., peptide 10 uM; for remaining at 0.25 h, 10 uM / remaining at 0.5 h, 10 uM / remaining at 1 h, 10 uM / remaining at 2 h, 10 uM / remaining at 3 h, 10 uM: pooled mouse plasma; for remaining at 0.25 h, 10 uM: 15 min, read-out: % Remaining at Each Time Point: 15 min; for remaining at 0.5 h, 10 uM: 30 min, read-out: % Remaining at Each Time Point: 30 min; for remaining at 1 h, 10 uM: 60 min, read-out: % Remaining at Each Time Point: 60 min; for remaining at 2 h, 10 uM: 120 min, read-out: % Remaining at Each Time Point: 120 min; for remaining at 3 h, 10 uM: 180 min, read-out: % Remaining at Each Time Point: 180 min
Procedure: as §1, with “(10” for “(100”, “13).” for “12).”

Row | % Remaining at Each Time Point: 0 min [1] [%] | remaining at 0.25 h, 100 uM [1] [%] | remaining at 0.5 h, 100 uM [1] [%] | remaining at 1 h, 100 uM [1] [%] | remaining at 2 h, 100 uM [1] [%] | remaining at 3 h, 100 uM [1] [%] | % Remaining at Each Time Point: 0 min [2] [%] | remaining at 0.25 h, 10 uM [2] [%] | remaining at 0.5 h, 10 uM [2] [%] | remaining at 1 h, 10 uM [2] [%] | remaining at 2 h, 10 uM [2] [%] | remaining at 3 h, 10 uM [2] [%] | Substance | Free Fatty Acid Levels in 3T3-L1 Adipocytes Expressed as a Percent of Isoproterenol Control: Percent of Control Value (3T3-L1 Adipocytes) [%]
1 | 100 | 69.1 | 65.8 | 59.1 | 43.3 | 29.1 |  |  |  |  |  |  | Ac-MRWQEMGYIFYPR-NH2 [compound 61] | 92.9
2 | 100 | 17.5 | 19.3 | 21.4 | 10.9 | 6.89 |  |  |  |  |  |  | H-ARWQEMGYIFYPRKLR-OH [compound 6] | 58.6
3 | 100 | 19.5 | 18.8 | 21.8 | 6.63 | 0 |  |  |  |  |  |  | H-MRWQEMGYIAYPRKLR-OH [compound 15] | 67.9
4 |  |  |  |  |  |  | 100 | 76.7 | 68.2 | 54.5 | 59.4 | 56.1 | H-RWQEEQYIFEPR-OH [compound 264] | 63.2
5 |  |  |  |  |  |  | 100 | 76.1 | 49.5 | 20.3 | 0.48 | 0 | H-RWQEMGYIFYPRKL-OH [compound 268] | 41.9
6 |  |  |  |  |  |  | 100 | 63.2 | 54.1 | 35.9 | 20 | 11.7 | H-RWQEMNYIAYPR-OH [compound 250] | 83.0
7 |  |  |  |  |  |  | 100 | 46.7 | 40.5 | 28.3 | 15.8 | 11.1 | H-RWQEMNYIFEPR-OH [compound 249] | 81.3
8 |  |  |  |  |  |  | 100 | 70 | 45.8 | 17.2 | 2.64 | 0.43 | H-WQEMGYIFYPRKL-OH [compound 269] | 59.2
9 |  |  |  |  |  |  | 100 | 38.5 | 16.7 | 9.17 | 1.76 | 0.87 | H-WQEMNYIFYP-OH [compound 285] | 96.0
10 |  |  |  |  |  |  | 100 | 75.3 | 60.1 | 41.1 | 22.1 | 13.7 | H-WQEMNYIFYPR-OH [compound 284] | 97.1
